Data as given in BigSolDB 2.1.

O=C1c2ccccc2-c2ccccc21
solubility (mole fraction)
Conditions | in diisopropyl ether | in ethanol | in ethyl acetate | in n-butanol | in tetrachloromethane | in toluene
283.15 K | 0.0297 | 0.0209 | 0.123 | 0.0267 | 0.114 | 0.12
288.15 K | 0.0356 | 0.0241 | 0.142 | 0.0321 | 0.142 | 0.142
293.15 K | 0.0426 | 0.0301 | 0.173 | 0.0402 | 0.158 | 0.164
298.15 K | 0.0541 | 0.043 | 0.221 | 0.0498 | 0.192 | 0.197
303.15 K | 0.0642 | 0.0562 | 0.244 | 0.0685 | 0.241 | 0.228
308.15 K | 0.0815 | 0.0976 | 0.284 | 0.0848 | 0.291 | 0.264
313.15 K | 0.108 | 0.144 | 0.335 | 0.126 | 0.347 | 0.315
318.15 K | 0.137 | 0.207 | 0.395 | 0.162 | 0.403 | 0.371
323.15 K | 0.18 | 0.292 | 0.465 | 0.236 | 0.462 | 0.41
328.15 K | 0.228 | 0.409 | 0.548 | 0.311 | 0.519 | 0.485
333.15 K | 0.309 | 0.548 | 0.63 | 0.4 | 0.582 | 0.55

c1ccc2c(c1)oc1ccccc12
solubility (mole fraction)
Conditions | in diisopropyl ether | in ethanol | in ethyl acetate | in n-butanol | in tetrachloromethane | in toluene
283.15 K | 0.0838 | 0.0211 | 0.145 | 0.0281 | 0.134 | 0.158
288.15 K | 0.104 | 0.0271 | 0.168 | 0.0326 | 0.161 | 0.185
293.15 K | 0.13 | 0.0322 | 0.199 | 0.0421 | 0.191 | 0.223
298.15 K | 0.155 | 0.0414 | 0.232 | 0.0531 | 0.216 | 0.266
303.15 K | 0.183 | 0.0489 | 0.269 | 0.0671 | 0.264 | 0.301
308.15 K | 0.237 | 0.0707 | 0.328 | 0.0877 | 0.307 | 0.344
313.15 K | 0.284 | 0.102 | 0.387 | 0.107 | 0.354 | 0.399
318.15 K | 0.341 | 0.134 | 0.441 | 0.166 | 0.412 | 0.455
323.15 K | 0.412 | 0.197 | 0.502 | 0.23 | 0.491 | 0.514
328.15 K | 0.508 | 0.283 | 0.565 | 0.364 | 0.548 | 0.582
333.15 K | 0.58 | 0.334 | 0.625 | 0.514 | 0.635 | 0.624
